According to PubChem BioAssay AID1963860 (Molecular Pharmacology Branch, DTP, NCI, 2024):

System: CN0375-F725-PDC KRAS spheroid viability
Experiment: Anticancer human tumor CN0375-F725-PDC patient-derived colon carcinoma cell line growth inhibition [KRAS2]
Settings: spheroids with HUVEC and MSC; for IC50: curve of first compound; for viability, T/C: stronger effect = lower value
In short: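 Combination screen of spheroid viability in tumor-cell co-cultures with endothelial (HUVEC) and mesenchymal stem cell stroma. Each agent was tested in half-log dilutions, topping at clinical Cmax or at 10 microM without a known Cmax.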

[1] = second compound 0.0316 µM, first compound 0.0316 µM
[2] = second compound 0.0316 µM, first compound 0.1 µM
[3] = second compound 0.1 µM, first compound 0.0316 µM
[4] = second compound 0.1 µM, first compound 0.1 µM
[5] = second compound 0.1 µM, first compound 0.316 µM
[6] = second compound 0.1 µM, first compound 1 µM
[7] = second compound 0.1 µM, first compound 3.16 µM
[8] = second compound 0.1 µM, first compound 10 µM
[9] = second compound 0.316 µM, first compound 0.0316 µM
[10] = second compound 0.316 µM, first compound 0.1 µM
[11] = second compound 0.316 µM, first compound 0.316 µM
[12] = second compound 0.316 µM, first compound 1 µM
[13] = second compound 0.316 µM, first compound 3.16 µM
[14] = second compound 0.316 µM, first compound 10 µM
[15] = second compound 1 µM, first compound 0.0316 µM
[16] = second compound 1 µM, first compound 0.1 µM
[17] = second compound 1 µM, first compound 0.316 µM
[18] = second compound 1 µM, first compound 1 µM
[19] = second compound 1 µM, first compound 3.16 µM
[20] = second compound 1 µM, first compound 10 µM
[21] = second compound 3.16 µM, first compound 0.0316 µM
[22] = second compound 3.16 µM, first compound 0.1 µM
[23] = second compound 3.16 µM, first compound 0.316 µM
[24] = second compound 3.16 µM, first compound 1 µM
[25] = second compound 3.16 µM, first compound 3.16 µM
[26] = second compound 3.16 µM, first compound 10 µM
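Also: spheroids exposed to agents for 7 days.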

With `CC(C)NCC(C(=O)N1CCN(c2ncnc3c2C(C)CC3O)CC1)c1ccc(Cl)cc1` (stereo not given) + C=CC(=O)N1CCN(c2nc(OCC3CCCN3C)nc3c2CCN(c2cccc4cccc(C)c24)C3)CC1CC#N the IC50 (second compound 0.0316 µM) was > 10 µM, the IC50 (second compound 0.1 µM) was > 10 µM and the IC50 (second compound 0.316 µM) was > 10 µM. The IC50 (second compound 1 µM) was > 10 µM, the IC50 (second compound 3.16 µM) was < 0.0316 µM and the viability, T/C [1] was 106%. For the same molecule, the viability, T/C [2] was 105%, the viability, T/C (second compound 0.0316 µM, first compound 0.316 µM) was 101% and the viability, T/C (second compound 0.0316 µM, first compound 1 µM) was 93%. For the same molecule, the viability, T/C (second compound 0.0316 µM, first compound 3.16 µM) was 94.2%, the viability, T/C (second compound 0.0316 µM, first compound 10 µM) was 83.2% and the viability, T/C [3] was 106%. For the same molecule, the viability, T/C [4] was 103%, the viability, T/C [5] was 98% and the viability, T/C [6] was 91.7%. It also gave a viability, T/C [7] of 91.4%, a viability, T/C [8] of 78.2% and a viability, T/C [9] of 101%. For the same molecule, the viability, T/C [10] was 108%, the viability, T/C [11] was 94.6% and the viability, T/C [12] was 87.8%. The viability, T/C [13] was 85.3%, the viability, T/C [14] was 71.4% and the viability, T/C [15] was 103%. The viability, T/C [16] was 102%, the viability, T/C [17] was 92.5% and the viability, T/C [18] was 76.8%. The viability, T/C [19] was 70.9%, the viability, T/C [20] was 58.2% and the viability, T/C [21] was 19.5%. It also gave a viability, T/C [22] of 14.7%, a viability, T/C [23] of 13.5% and a viability, T/C [24] of 4.72%. For the same molecule, the viability, T/C [25] was 3.97% and the viability, T/C [26] was 1.46%.
`CN(C)C/C=C/C(=O)Nc1cc2c(Nc3ccc(F)c(Cl)c3)ncnc2cc1O[C@H]1CCOC1` + C=CC(=O)N1CCN(c2nc(OCC3CCCN3C)nc3c2CCN(c2cccc4cccc(C)c24)C3)CC1CC#N was tested, and the IC50 (second compound 0.0316 µM) was > 0.1 µM, the IC50 (second compound 0.1 µM) was > 0.1 µM and the IC50 (second compound 0.316 µM) was > 0.1 µM. The IC50 (second compound 1 µM) was > 0.1 µM, the IC50 (second compound 3.16 µM) was < 0.000316 µM and the viability, T/C (second compound 0.0316 µM, first compound 0.000316 µM) was 107%. It also gave a viability, T/C (second compound 0.0316 µM, first compound 0.001 µM) of 94.9%, a viability, T/C (second compound 0.0316 µM, first compound 0.00316 µM) of 88.8% and a viability, T/C (second compound 0.0316 µM, first compound 0.01 µM) of 84.8%. For the same molecule, the viability, T/C [1] was 82.7%, the viability, T/C [2] was 76.4% and the viability, T/C (second compound 0.1 µM, first compound 0.000316 µM) was 105%. For the same molecule, the viability, T/C (second compound 0.1 µM, first compound 0.001 µM) was 98.6%, the viability, T/C (second compound 0.1 µM, first compound 0.00316 µM) was 88% and the viability, T/C (second compound 0.1 µM, first compound 0.01 µM) was 87.7%. It also gave a viability, T/C [3] of 80%, a viability, T/C [4] of 77.5% and a viability, T/C (second compound 0.316 µM, first compound 0.000316 µM) of 102%. It also gave a viability, T/C (second compound 0.316 µM, first compound 0.001 µM) of 101%, a viability, T/C (second compound 0.316 µM, first compound 0.00316 µM) of 84.2% and a viability, T/C (second compound 0.316 µM, first compound 0.01 µM) of 81.5%. It also gave a viability, T/C [9] of 73.4%, a viability, T/C [10] of 76.7% and a viability, T/C (second compound 1 µM, first compound 0.000316 µM) of 90.6%. The viability, T/C (second compound 1 µM, first compound 0.001 µM) was 96.7%, the viability, T/C (second compound 1 µM, first compound 0.00316 µM) was 83.4% and the viability, T/C (second compound 1 µM, first compound 0.01 µM) was 75.9%. For the same molecule, the viability, T/C [15] was 75.6%, the viability, T/C [16] was 74.1% and the viability, T/C (second compound 3.16 µM, first compound 0.000316 µM) was 30.9%. It also gave a viability, T/C (second compound 3.16 µM, first compound 0.001 µM) of 24.6%, a viability, T/C (second compound 3.16 µM, first compound 0.00316 µM) of 8.56% and a viability, T/C (second compound 3.16 µM, first compound 0.01 µM) of 9.52%. The viability, T/C [21] was 10.6% and the viability, T/C [22] was 10.4%.
For `Cn1nccc1Nc1nccc(-c2cc3c(s2)C(C)(C)N(CCN2CCOCC2)C3=O)n1` + C=CC(=O)N1CCN(c2nc(=O)n(-c3c(C)ccnc3C(C)C)c3nc(-c4c(O)cccc4F)c(F)cc23)C(C)C1, the IC50 (second compound 0.1 µM) was 6.96 µM, the IC50 (second compound 0.316 µM) was 5.32 µM and the IC50 (second compound 1 µM) was > 10 µM. For the same molecule, the IC50 (second compound 3.16 µM) was 2.34 µM, the IC50 (second compound 10 µM) was 0.674 µM and the viability, T/C [3] was 117%. It also gave a viability, T/C [4] of 88%, a viability, T/C [5] of 70.1% and a viability, T/C [6] of 70.6%. For the same molecule, the viability, T/C [7] was 55.5%, the viability, T/C [8] was 45.3% and the viability, T/C [9] was 120%. The viability, T/C [10] was 93.9%, the viability, T/C [11] was 64.3% and the viability, T/C [12] was 63.8%. The viability, T/C [13] was 54.3%, the viability, T/C [14] was 45% and the viability, T/C [15] was 119%. It also gave a viability, T/C [16] of 99.3%, a viability, T/C [17] of 66% and a viability, T/C [18] of 61.2%. It also gave a viability, T/C [19] of 54.9%, a viability, T/C [20] of 46.1% and a viability, T/C [21] of 120%. The viability, T/C [22] was 105%, the viability, T/C [23] was 67.8% and the viability, T/C [24] was 60.3%. For the same molecule, the viability, T/C [25] was 50.2%, the viability, T/C [26] was 42.4% and the viability, T/C (second compound 10 µM, first compound 0.0316 µM) was 103%. It also gave a viability, T/C (second compound 10 µM, first compound 0.1 µM) of 101%, a viability, T/C (second compound 10 µM, first compound 0.316 µM) of 61.7% and a viability, T/C (second compound 10 µM, first compound 1 µM) of 48.8%. For the same molecule, the viability, T/C (second compound 10 µM, first compound 3.16 µM) was 45.4% and the viability, T/C (second compound 10 µM, first compound 10 µM) was 32.2%.
